Experiments:
[1] = molecular target: T1, Growth hormone secretagogue receptor type 1 (Homo sapiens, UniProt Q92847); assay: Agonist activity at human ghrelin receptor; type: functional
[2] = molecular target: Motilin receptor (Homo sapiens, UniProt O43193); assay: Agonist activity at human recombinant motilin receptor expressed in CHO cells by FLIPR assay; type: functional, cell-based
[3] = molecular target: Cytochrome P450 2D6 (Homo sapiens, UniProt P10635); assay: Inhibition of human recombinant CYP2D6; type: ADME
[4] = molecular target: T2, Cytochrome P450 3A4 (Homo sapiens, UniProt P08684); assay: Inhibition of human recombinant CYP3A4 using diethoxyfluorescein as substrate; type: ADME
[5] = molecular target: D(3) dopamine receptor (Homo sapiens, UniProt P35462); assay: Agonist activity at dopamine D3 receptor; type: functional
[6] = molecular target: T1, Growth hormone secretagogue receptor type 1; assay: Intrinsic activity at human ghrelin receptor relative to ghrelin
[7] = molecular target: D(2) dopamine receptor (Homo sapiens, UniProt P14416); assay: Agonist activity at dopamine D2 receptor; type: functional
[8] = molecular target: T2, Cytochrome P450 3A4; assay: Inhibition of human recombinant CYP3A4 using 7-{3-(4-phenylpiperazin-1-ylmethyl)benzyl}resorufin as substrate; type: ADME
[9] = molecular target: 5-hydroxytryptamine receptor 6 (Homo sapiens, UniProt P50406); assay: Agonist activity at 5HT6 receptor; type: functional
[10] = molecular target: Cytochrome P450 2C9 (Homo sapiens, UniProt P11712); assay: Inhibition of human recombinant CYP2C9; type: ADME
[11] = tested on: Liver microsomes; assay: Intrinsic clearance in rat liver microsomes after 30 mins; type: ADME, Microsome; settings: 0.5 h
[12] = tested on: Liver microsomes; assay: Intrinsic clearance in human liver microsomes after 30 mins; type: ADME, Microsome; settings: 0.5 h
[13] = tested on: Stomach; assay: Increase in electric field stimulated contractile response in New Zealand White rabbit gastric antrum at 1 uM after 60 mins; type: functional; settings: Oryctolagus cuniculus, 1 h
[14] = tested on: Stomach; assay: Increase in electric field stimulated contractile response in New Zealand White rabbit gastric antrum at 3 uM after 60 mins; type: functional; settings: Oryctolagus cuniculus, 1 h

Cytochrome P450 2D6, sequence (P10635 whole entry): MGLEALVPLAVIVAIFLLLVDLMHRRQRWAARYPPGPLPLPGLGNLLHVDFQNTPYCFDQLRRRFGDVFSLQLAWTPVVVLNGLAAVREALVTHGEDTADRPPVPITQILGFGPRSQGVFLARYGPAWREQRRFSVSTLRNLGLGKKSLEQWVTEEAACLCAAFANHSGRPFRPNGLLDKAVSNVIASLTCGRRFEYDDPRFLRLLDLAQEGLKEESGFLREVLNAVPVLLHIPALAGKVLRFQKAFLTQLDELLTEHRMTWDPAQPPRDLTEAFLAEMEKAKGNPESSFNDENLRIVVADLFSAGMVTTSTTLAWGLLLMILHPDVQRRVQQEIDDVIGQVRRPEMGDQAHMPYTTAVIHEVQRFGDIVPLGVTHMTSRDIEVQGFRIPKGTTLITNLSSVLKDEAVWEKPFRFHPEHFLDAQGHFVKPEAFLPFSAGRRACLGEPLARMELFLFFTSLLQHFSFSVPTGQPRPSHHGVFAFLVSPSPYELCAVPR
Motilin receptor, sequence (O43193 whole entry): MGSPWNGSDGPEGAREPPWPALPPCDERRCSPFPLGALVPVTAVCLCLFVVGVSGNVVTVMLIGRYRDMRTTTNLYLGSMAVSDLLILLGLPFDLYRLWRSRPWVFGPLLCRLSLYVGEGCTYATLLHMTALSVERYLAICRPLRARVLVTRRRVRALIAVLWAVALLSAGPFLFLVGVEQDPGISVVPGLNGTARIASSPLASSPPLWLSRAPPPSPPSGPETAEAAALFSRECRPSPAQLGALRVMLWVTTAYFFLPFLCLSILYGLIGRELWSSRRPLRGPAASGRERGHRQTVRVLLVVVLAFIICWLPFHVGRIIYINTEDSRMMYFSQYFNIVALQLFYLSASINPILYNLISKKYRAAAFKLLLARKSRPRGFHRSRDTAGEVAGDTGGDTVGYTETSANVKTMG
T1 sequence (Q92847 whole entry): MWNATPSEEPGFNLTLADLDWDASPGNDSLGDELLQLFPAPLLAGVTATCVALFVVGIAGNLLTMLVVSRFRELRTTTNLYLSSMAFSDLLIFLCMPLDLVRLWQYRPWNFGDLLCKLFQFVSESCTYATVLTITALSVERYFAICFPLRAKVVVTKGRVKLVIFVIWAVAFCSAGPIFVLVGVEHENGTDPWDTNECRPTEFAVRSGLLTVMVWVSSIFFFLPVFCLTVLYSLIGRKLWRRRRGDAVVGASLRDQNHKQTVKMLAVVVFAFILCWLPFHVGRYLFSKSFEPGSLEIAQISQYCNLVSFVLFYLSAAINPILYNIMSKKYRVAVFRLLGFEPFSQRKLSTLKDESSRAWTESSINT
T2 sequence (P08684 whole entry): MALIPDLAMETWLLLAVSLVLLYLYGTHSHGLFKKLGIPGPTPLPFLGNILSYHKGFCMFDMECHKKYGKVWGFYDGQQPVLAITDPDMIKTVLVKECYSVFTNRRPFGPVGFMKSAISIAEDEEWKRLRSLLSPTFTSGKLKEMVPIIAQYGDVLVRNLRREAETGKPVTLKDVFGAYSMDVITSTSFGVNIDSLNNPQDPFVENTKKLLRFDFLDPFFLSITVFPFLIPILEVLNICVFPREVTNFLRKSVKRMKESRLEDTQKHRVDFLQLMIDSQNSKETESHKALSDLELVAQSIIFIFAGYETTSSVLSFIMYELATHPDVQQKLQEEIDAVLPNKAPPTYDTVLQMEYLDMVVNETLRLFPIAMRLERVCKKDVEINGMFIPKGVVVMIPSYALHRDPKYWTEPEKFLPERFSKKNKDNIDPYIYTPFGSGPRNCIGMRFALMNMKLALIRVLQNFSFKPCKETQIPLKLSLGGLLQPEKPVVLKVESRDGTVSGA
5-hydroxytryptamine receptor 6, sequence (P50406 whole entry): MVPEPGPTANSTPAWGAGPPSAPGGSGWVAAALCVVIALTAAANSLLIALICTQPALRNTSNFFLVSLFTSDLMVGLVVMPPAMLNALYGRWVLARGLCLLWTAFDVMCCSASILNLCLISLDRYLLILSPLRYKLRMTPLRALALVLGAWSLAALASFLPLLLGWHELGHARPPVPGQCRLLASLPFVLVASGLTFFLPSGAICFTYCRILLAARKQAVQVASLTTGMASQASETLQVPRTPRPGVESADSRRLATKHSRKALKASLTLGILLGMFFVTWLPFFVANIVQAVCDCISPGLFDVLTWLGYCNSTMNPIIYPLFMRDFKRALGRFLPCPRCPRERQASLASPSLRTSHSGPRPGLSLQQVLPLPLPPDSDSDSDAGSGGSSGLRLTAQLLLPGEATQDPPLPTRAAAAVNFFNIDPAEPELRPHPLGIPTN
D(3) dopamine receptor, sequence (P35462 whole entry): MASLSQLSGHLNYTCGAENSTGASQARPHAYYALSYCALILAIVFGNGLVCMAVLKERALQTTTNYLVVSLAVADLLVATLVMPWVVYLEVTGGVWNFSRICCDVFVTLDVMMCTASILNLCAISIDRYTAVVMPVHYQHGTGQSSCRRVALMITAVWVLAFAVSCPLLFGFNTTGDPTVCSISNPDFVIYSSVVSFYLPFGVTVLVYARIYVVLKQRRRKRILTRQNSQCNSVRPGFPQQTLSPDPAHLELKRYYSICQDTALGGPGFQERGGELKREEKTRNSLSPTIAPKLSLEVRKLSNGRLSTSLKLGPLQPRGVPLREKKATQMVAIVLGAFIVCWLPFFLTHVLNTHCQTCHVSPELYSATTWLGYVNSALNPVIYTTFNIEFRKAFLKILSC
D(2) dopamine receptor, sequence (P14416 whole entry): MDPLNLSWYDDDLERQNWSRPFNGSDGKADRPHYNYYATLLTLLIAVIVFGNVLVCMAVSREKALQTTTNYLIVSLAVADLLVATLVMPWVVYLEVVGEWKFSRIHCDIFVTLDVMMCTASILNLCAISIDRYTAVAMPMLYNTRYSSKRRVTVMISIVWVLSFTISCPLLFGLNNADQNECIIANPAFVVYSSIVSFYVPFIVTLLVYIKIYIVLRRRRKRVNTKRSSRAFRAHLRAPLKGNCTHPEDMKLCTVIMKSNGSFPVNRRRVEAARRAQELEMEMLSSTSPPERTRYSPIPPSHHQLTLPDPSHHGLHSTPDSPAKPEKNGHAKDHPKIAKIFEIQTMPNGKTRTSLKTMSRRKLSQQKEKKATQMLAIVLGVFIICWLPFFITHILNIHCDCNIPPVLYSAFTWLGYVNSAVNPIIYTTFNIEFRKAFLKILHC
Cytochrome P450 2C9, sequence (P11712 whole entry): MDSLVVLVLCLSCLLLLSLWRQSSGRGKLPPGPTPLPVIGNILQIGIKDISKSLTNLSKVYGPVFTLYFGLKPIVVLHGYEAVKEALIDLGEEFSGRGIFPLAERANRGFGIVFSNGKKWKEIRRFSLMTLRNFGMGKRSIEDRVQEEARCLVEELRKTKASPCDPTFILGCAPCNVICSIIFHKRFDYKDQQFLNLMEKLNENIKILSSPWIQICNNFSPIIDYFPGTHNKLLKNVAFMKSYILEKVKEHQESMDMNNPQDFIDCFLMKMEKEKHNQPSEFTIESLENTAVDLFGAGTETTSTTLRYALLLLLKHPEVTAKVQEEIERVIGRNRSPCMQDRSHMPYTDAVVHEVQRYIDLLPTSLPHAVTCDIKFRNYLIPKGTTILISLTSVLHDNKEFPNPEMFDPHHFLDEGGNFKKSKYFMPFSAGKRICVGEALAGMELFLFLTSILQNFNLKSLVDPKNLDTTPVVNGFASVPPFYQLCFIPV

Structure (SMILES): CCCCc1ccc(S(=O)(=O)Nc2ccc3c(c2)CCN(C2CCCC2)CC3)cc1
- EC50 [1]: > 1000 nM
- EC50 [2]: 200 nM

Structure (SMILES): O=C(Nc1ccc(N2CCOCC2)nc1)c1ccc2c(c1)CCNCC2
- EC50 [2]: > 12600 nM

Structure (SMILES): O=S(=O)(Nc1ccc2c(c1)CCN(Cc1cc[nH]n1)CC2)c1ccc(-c2ccccc2)cc1
- IC50 [3]: < 100 nM
- IC50 [4]: < 100 nM
- Ki [5]: 31.6 nM
- Intrinsic activity [6]: 0.7
- EC50 [1]: 1580 nM
- EC50 [2]: 10 nM
- Ki [7]: 631 nM
- IC50 [8]: < 100 nM
- Ki [9]: 126 nM

Structure (SMILES): O=S(=O)(Cc1ccc2c(c1)CCNCC2)c1ccc(Oc2ccc(F)cc2)nc1
- IC50 [3]: 1700 nM
- EC50 [1]: > 1000 nM
- EC50 [2]: 501 nM

Structure (SMILES): CCCCc1ccc(S(=O)(=O)Nc2ccc3c(c2)CCNCC3)cc1
- EC50 [2]: 1580 nM

Structure (SMILES): N#Cc1ccc(S(=O)(=O)Nc2ccc3c(c2)CCN(Cc2cc[nH]n2)CC3)cc1
- IC50 [3]: 7900 nM
- IC50 [10]: 2500 nM
- EC50 [2]: 7940 nM

Structure (SMILES): N#Cc1ccc(-c2ccc(S(=O)(=O)Cc3ccc4c(c3)CCNCC4)cn2)cc1
- EC50 [1]: > 1000 nM
- EC50 [2]: 158 nM

Structure (SMILES): CN(Cc1ccc2c(c1)CCNCC2)C(=O)c1ccc(N2CCOCC2)nc1
- EC50 [2]: > 12600 nM

Structure (SMILES): O=S(=O)(Cc1ccccc1)Nc1ccc2c(c1)CCN(Cc1ccn[nH]1)CC2
- EC50 [1]: > 1000 nM
- EC50 [2]: 2510 nM

Structure (SMILES): O=C(Nc1ccc(F)cc1)c1ccc(S(=O)(=O)Cc2ccc3c(c2)CCNCC3)cn1
- EC50 [2]: 2000 nM

Structure (SMILES): CCCCc1ccc(S(=O)(=O)Nc2ccc3c(c2)CCN(Cc2cnc[nH]2)CC3)cc1
- Intrinsic activity [6]: 0.4
- EC50 [1]: 3.98 nM
- EC50 [2]: 7.94 nM

Structure (SMILES): CCCCc1ccc(S(=O)(=O)Nc2ccc3c(c2)CCN(C2CCN(C)CC2)CC3)cc1
- EC50 [2]: > 12600 nM

Structure (SMILES): O=S(=O)(Cc1ccc2c(c1)CCNCC2)c1ccc(-c2ccc(Cl)cc2)cc1
- IC50 [3]: < 100 nM
- EC50 [1]: > 10000 nM
- CL [11]: < 0.5 mL/min/g
- EC50 [2]: 20 nM
- CL [12]: < 1 mL/min/g

Structure (SMILES): CCCCc1ccc(S(=O)(=O)Nc2ccc3c(c2)CCN(Cc2ccccc2)CC3)cc1
- EC50 [2]: > 3160 nM

Structure (SMILES): O=S(=O)(Cc1ccc2c(c1)CCNCC2)c1ccc(N2CCOCC2)nc1
- IC50 [3]: 16000 nM
- EC50 [1]: > 1000 nM
- CL [11]: < 1 mL/min/g
- EC50 [2]: 501 nM
- CL [12]: < 0.5 mL/min/g

Structure (SMILES): CCCCc1ccc(S(=O)(=O)Nc2ccc3c(c2)CCN(CC2CCOC2)CC3)cc1 (configuration not stated)
- EC50 [1]: > 1000 nM
- EC50 [2]: 2000 nM

Structure (SMILES): CCCCc1ccc(S(=O)(=O)Cc2ccc3c(c2)CCNCC3)cc1
- EC50 [2]: 126 nM

Structure (SMILES): CC(C)(C)c1ccc(S(=O)(=O)Cc2ccc3c(c2)CCNCC3)cc1
- EC50 [1]: > 10000 nM
- EC50 [2]: 3160 nM

Structure (SMILES): CCCCc1ccc(S(=O)(=O)Nc2ccc3c(c2)CCN(Cc2ccc(NC(C)=O)s2)CC3)cc1
- EC50 [1]: > 1000 nM
- EC50 [2]: 50.1 nM

Structure (SMILES): O=S(=O)(Cc1ccc2c(c1)CCNCC2)c1ccccc1
- EC50 [1]: > 10000 nM
- EC50 [2]: > 12600 nM

Structure (SMILES): O=S(=O)(Cc1ccc2c(c1)CCNCC2)c1ccc(-c2ccc(F)cc2)nc1
- IC50 [3]: 600 nM
- Emax at 1 µM [13]: 54%
- EC50 [1]: > 1000 nM
- CL [11]: < 0.5 mL/min/g
- EC50 [2]: 5.01 nM
- CL [12]: < 1 mL/min/g

Structure (SMILES): Cc1ccc(S(=O)(=O)Nc2ccc3c(c2)CCN(Cc2cc[nH]n2)CC3)cc1Cl
- Intrinsic activity [6]: 0.7

Structure (SMILES): CCCCc1ccc(S(=O)(=O)Nc2ccc3c(c2)CCN(Cc2[nH]cnc2C)CC3)cc1
- Intrinsic activity [6]: 0.6
- EC50 [1]: 3.98 nM
- EC50 [2]: 3.16 nM

Structure (SMILES): CCCCc1ccc(S(=O)(=O)Nc2ccc3c(c2)CCN(Cc2cc[nH]n2)CC3)cc1
- Emax at 1 µM [13]: 47%
- Intrinsic activity [6]: 0.7

Structure (SMILES): O=S(=O)(Cc1ccc2c(c1)CCNCC2)c1ccc(-c2ccc(F)cc2)cc1
- IC50 [3]: 200 nM
- Emax at 3 µM [14]: 166%
- EC50 [1]: > 10000 nM
- CL [11]: < 1 mL/min/g
- EC50 [2]: 12.6 nM
- CL [12]: < 1 mL/min/g

Structure (SMILES): CN1CCOc2cc(S(=O)(=O)Nc3ccc4c(c3)CCN(Cc3cc[nH]n3)CC4)ccc21
- Ki [5]: 631 nM
- EC50 [1]: > 10000 nM
- EC50 [2]: 31.6 nM
- Ki [7]: > 1000 nM
- Ki [9]: 15.8 nM

Source: ChEMBL document CHEMBL1154336, “The discovery and optimisation of benzazepine sulfonamide and sulfones as potent agonists of the motilin receptor” (Bioorg Med Chem Lett, 2009)
